Reference: paper PMC11986975, “A Cdk5 inhibitor restores cognitive function and alleviates type 2 diabetes in mice” (iScience, 2025)

Columns and labels:
HFD-fed mice [1] = assay: Glucose tolerance test (GTT) in HFD mice; assay type: in vivo; conditions: i.p., both dosages 20 and 40 mg/kg/day, 20 days
Experimental: For the glucose tolerance test, 2 g/kg of glucose was utilized, and 0.75U/kg of human insulin was employed The glucose tolerance test (GTT) and insulin tolerance test (ITT) were performed in HFD mice models after 20 weeks of HFD feeding followed by 20 days of drug administration.[48] For GTT the mice were kept in a fasting period for overnight before glucose injections of 2 g/kg intraperitoneally. For ITT the mice were kept in a fasting for 6 h prior to insulin injection of 0.75 U/kg intraperitoneally. A one-touch glucometer was used to assess the blood sugar levels at various intervals (0, 60, and 120 min) following intraperitoneal infusion of both glucose and insulin.[23]^,[49]^,[50]^,[51] After 20 weeks of a HFD and 20 days of drug administration, the tests were carried out.

[2] = LC-MS of brain lysate and serum after intraperitoneal injection in HFD mouse model; assay type: in vivo; conditions: C57BL/6J, ip, HFD mice, LC-MS peak area in brain lysate compared to serum
Experimental: To assess the BBB penetrability of BLINK11 and BLINK15 in the high-fat diet (HFD) mouse model, intraperitoneal injections were administered, and liquid chromatography-mass spectrometry (LC-MS) analysis was conducted on both brain lysate and serum samples (Figure 3). The LC-MS results depicted in Figures 3A and 3B showcase the peaks corresponding to the BLINK11 compound in the brain lysate and serum, respectively. Similarly, Figures 3C and 3D illustrate the peaks associated with the BLINK15 compound in the brain lysate and serum, respectively. […] These analyses provide a quantitative measure of the presence of the compounds in the respective samples. Furthermore, to ascertain the relative distribution of BLINK11 and BLINK15 in the brain compared to serum, the percentages of each compound present in the brain were calculated and plotted in a bar graph (Figure 3G). […]
Metabolites, comprising the entire spectrum within the lysate excluding proteins but inclusive of drugs, were extracted from plasma and brain tissue homogenate samples. […] Compounds were analyzed in these samples using a multiple reaction monitoring method (using parameters mentioned in Table S5) on a triple quadrupole hybrid ion trap mass spectrometer (QTRAP 6500+, SCIEX) coupled with an ExionLC UHPLC system (SCIEX). […] Relative quantification was performed using MultiQuantTM software v.3.0 (SCIEX). […]

[3] = MTT cell toxicity assay in HEK293T cells; assay type: cell-based; conditions: human, all doses (25 to 100 μM)
Experimental: (§1) HEK293T, HepG2, and N2A cells were used in the study representing kidney, liver and neuronal cell lines respectively. The cells were cultured in DMEM supplemented with 10% fetal bovine serum and antibiotics at 37°C under 5% CO2. The cells were tested negative for mycoplasma.
(§2) To evaluate the compound toxicity for the Cdk5 inhibitors, an MTT assay was performed in HEK293T, HepG2, and N2A cells at varying concentrations. Six hours after cell seeding, the compounds were added in different amounts, and the cells were harvested after 24 h for further analysis. N2A cells were transfected using Lipofectamine-3000 reagent, co-transfecting with plasmids encoding Cdk5/p35 and Cdk5/p25 for 12 h, followed by inhibitor treatment to assess their effects in the cell culture system. The concentrations of each plasmids used was 1 μg, total of 3 μg per well for 6 well plates.

HFD-fed mice [4] = assay: Elevated plus maze (EPM) in HFD mice; assay type: in vivo; conditions: i.p., 20 days, compared to HFD group
Source text: In order to examine anxiety-like behavior, phenotype transgenic and knockout mice, and screen for anxiolytic and anxiogenic medicines, this maze takes advantage of the natural fear of open, high areas in rodents.[56]^,[57]
The EPM experiment is a widely utilized technique in behavioral neuroscience to evaluate anxiety-related behaviors in mice.[57] The apparatus comprises two open arms and two closed arms arranged in a plus-shaped configuration and elevated above the ground. Mice are introduced to the center of the maze, and their movements are observed over a set period of 5 min.[56]^,[58] The amount of time spent in the open arms versus the closed arms is recorded, with more time in the open arms indicating lower anxiety levels. The distance traveled in each arm were also analyzed using ANYmaze software. This method leverages the natural tendency of rodents to avoid open spaces and seek enclosed areas.

Cdk2/CylA2 = assay: Specificity kinase assay, Cdk2 with cyclin A2; assay type: biochemical; conditions: inhibitor 0-100 nM
Source text: To assess the specificity of inhibitors BLINK11 and BLINK15 against CDK5, we investigated their effects on different Cdks, i.e., Cdk1, Cdk2, and Cdk9 that share structural homology with CDK5. […] However, these IC50 values were higher than those observed for CDK5/p35 and CDK5/p25. […] Overall, BLINK11 and BLINK15 can selectively target CDK5 at lower concentrations. […]
IC50 of all the kinases for both BLINK11 and BLINK15 inhibitors.

[5] = MTT cell toxicity assay in N2A cells; assay type: cell-based; conditions: mouse, N2A (Neuro2A) cells, all doses (25 to 100 μM)
Experimental: as §1, §2

Kp [2] | Inhibition of Cdk2 (with cyclin A2) (Cdk2/CylA2) | SMILES | Glucose tolerance test (GTT) (HFD-fed mice [1]) | viability at 24 h [3] [%] | Anxiety behavior in elevated plus maze (time in open and closed arms) (HFD-fed mice [4]) | viability at 24 h [5] [%]
0.38 | minimal inhibition | O=C(COc1ccccc1C(=O)Nc1cccc(Cl)c1Cl)Nc1ccc(N2CCOCC2)c(Cl)c1 [BLINK11, 2-(2-((3-chloro-4-morpholinophenyl)amino)-2-oxoethoxy)-N-(2,3-dichlorophenyl)benzamide] | significant rescue | > 50 | rescuing effect on anxiety behavior | > 50
0.11 | minimal inhibition | COc1ccc(C(=O)C[C@@]2(O)C(=O)N(Cc3ccccc3)c3ccc(Br)cc32)cc1[N+](=O)[O-] [BLINK15] | significant rescue | > 50 | no significant difference compared to the HFD group | > 50
